Reference: PMC4862738 (Biomacromolecules, 2016)

Biological target: wt-PhaCCs (Chromobacterium sp. USM2, UniProt E1APK1)
Assay: continuous DTNB assay of CoA release, […] nm
Format: biochemical
Conditions: KPi 100 mM pH 7.8, 30 °C, BSA 0.2 mg/mL, DTNB 0.3 mM, Triton X-100 50 mg/L

**Q.** How did the “continuous DTNB assay of CoA release, 412 nm” value turn out when `C[C@@H](O)CC(=O)SCCNC(=O)CCNC(=O)[C@H](O)C(C)(C)COP(=O)(O)OP(=O)(O)OC[C@H]1O[C@@H](n2cnc3c(N)ncnc32)[C@H](O)[C@@H]1OP(=O)(O)O` [1a, HBCoA] was run?
**A.** Its value is “addition of BSA would increase SA of PhaCCs with HBCoA”.
